Reference: paper PMC5712521, “Dendrogenin A drives LXR to trigger lethal autophagy in cancers” (Nature Communications, 2017)

What was measured:
[1] = system: SKMEL-28 cells; test: DDA-induced cytotoxicity (cell death); format: cell-based; details: SKMEL-28; 5 µM 22(R)HC, 0.5 µM TO, 1 µM GW
Description: (§1) Melanoma cells were seeded into 6-well plates at 60,000 cells per well and AML cells at 250,000 cells/ml. The cells were then treated with control solvent vehicle (1/1000 ethanol in water) or DDA. Where indicated, treated cells were incubated in the presence or absence of each inhibitor for time shown. Cell death was determined by the trypan blue exclusion assay. Cells were scraped and resuspended in trypan blue solution (0.25% (w/v) in PBS) and counted in a Malassez cell under light microscopy. Cell viability was then quantified by counting viable (trypan blue-negative) and dead cells (trypan blue-positive).
(§2) Supplementary Fig. 1. a DDA inhibited m elanom a colony form ation. Melanom a cells were […]
(§3) a 0.5% solution of crystal violet in water and analyzed by microscopy. Images are representative of 5 independent experiments. b Evaluation of DDA-induced cytotoxicity (cytotox) and clonogenicity (clono) inhibition in a subset of human (H) and mouse (M) m elanom a cell lines. T he BRaf status in m elanom a cells lines is shown. […]

[2] = system: B16F10 cells; test: DDA-induced cytotoxicity (cell death); format: cell-based; details: B16F10; 5 µM 22(R)HC, 0.5 µM TO, 1 µM GW
Description: as §1, §2, §3

[3] = system: SKMEL-28 cells; test: RT-qPCR of LXR-responsive genes; format: cell-based, human; details: 8 h, 2.5 µM DDA, 10 µM 22(R)HC, 1 µM GW, 100 nM TO, vs vehicle
Description: Total RNA was extracted from tumor cells or MEFs using an RNA Extraction kit (Qiagen) or Trizol (Invitrogen), respectively, and was quantified with NanoDrop. Complementary DNA (cDNA) synthesis was performed with 1 μg RNA iScript Reverse Transcriptase (Bio-Rad). 25 ng cDNA was amplified using SyBR Supermix (Bio-Rad). RNA expression of the different genes of interest (Supplementary Tables 1, 2) were determined using the ΔΔCT method, where the difference in the threshold cycle (ΔCT) values of the target gene and the housekeeping gene for each sample was normalized to the ΔCT value of the untreated sample.
Supplementary Fig. 4. a R egulat ion of LXR-responsive genes b y D DA and other k nown LXR
ligands in B16F10 and SKMEL- 28 cells transfected with s iRN A targeting LXRβ ( siLXRβ) or
with contro l siRN A scram ble (siSC). Cells were treated for 8 h with either solvent vehicle, 2.5
µM DD A, 10 µM 22(R) hydrox ycholesterol (22(R)HC), 1 µM GW 3965 (GW ) or 100 nM
T O901317 (T O). […]

[4] = system: SKMEL-28 cells; test: Immunoblot densitometry (LC3-II); format: cell-based, human; details: SKMEL-28, 24 h; 2.5 µM DDA, 10 µM 22(R)HC, 100 nM TO
Description: Immunoblotting was carried out as described previously. Proteins were separated on SDS-PAGE gels, electro-transferred onto polyvinylidene difluoride membranes and incubated overnight at 4 °C with the following antibodies: anti-Atg3, anti-Atg5 (D1G9), anti-Atg7 (D12B11), anti-Beclin (D40C5), anti-caspase-3 (Cell Signaling), anti-Bcl-2 (Millipore), anti-Bax (Millipore), anti-LC3 (Sigma-Aldrich), anti-LXRα (SantaCruz), anti-LXRβ (SantaCruz), anti-Nur77 (Active motif), anti-NOR1 (R&D systems), anti-PARP (Cell Signaling), anti-Vps34 (Cell Signaling), or anti-Actin (Millipore). For visualization, an ECL plus kit (Amersham Biosciences) was used, and chemiluminescence was measured by autoradiography (Supplementary Fig. 9). Specific bands were quantified with ImageQuant software.

[5] = system: SKMEL-28 cells; test: Sterol analysis by GC/MS; format: cell-based, human; details: SKMEL-28, 24 h; 10 µM 22(R)HC, 1 µM GW, 100 nM TO; GC/MS
Description: Sterols in cell homogenates were extracted with a solvent mixture containing chloroform/methanol 2/1 (v/v) spiked with epicoprostanol as the internal standard. Lipids were partitioned in chloroform after the addition of saline and saponified by methanolic potassium hydroxide (0.5 N, 60 °C, 15 min). The fatty acids released were methylated with BF3-methanol (12%, 60 °C, 15 min) to not interfere with the chromatography of sterols. The sterols were re-extracted in hexane and silylated, as described previously. The trimethylsilylether derivatives of the sterols were separated by gas chromatography (GC) (Hewlett–Packard 6890 series) in a medium polarity capillary column RTX-65, (65% diphenyl 35% dimethyl polysiloxane, length 30 m, diameter 0.32 mm, film thickness 0.25 μm (Restesk, Evry, France)). The mass spectrometer (Agilent 5975 inert XL) in series with the GC was set up for the detection of positive ions. Ions were produced in the electron impact mode at 70 eV. Sterols were identified by the fragmentogram in the scanning mode and quantified by selective monitoring of the specific ions after normalization with the internal standard epicoprostanol and calibration with weighed standards. […]
Quantification of sterols ac cum ulation in SKMEL- 2 8 c ells either expressing LXRβ (shCT L) or with LXRβ (sh3 or sh4LXR β) k nock ed down after 24 h treatm ent with 2.5 µ M DD A or solvent vehicle. Anal yses were perform ed by GC/MS. f Quantification of sterols accumulated in m elanom a cells after 24 h treatm ent with 10 µM 22(R) HC, 1 µ M GW , 100 nM T O or solvent […]
vehicle. […]

Question: Which cell death [1] does the source give for CC(C)CC[C@@H](O)[C@@H](C)[C@H]1CC[C@H]2[C@@H]3CC=C4C[C@@H](O)CC[C@]4(C)[C@H]3CC[C@]12C [22(R)HC, 22(R)-hydroxycholesterol] here?
Answer: The cell death was “no impact on cell death”.

Question: And the cell death [2]?
Answer: Its cell death is “no impact on cell death”.

Question: And the “ABCA1 mRNA” value ([3]; SKMEL-28, siCT)?
Answer: The value was 6.5±0.1 fold.

Question: And the “ABCG1 mRNA” value ([3]; SKMEL-28, siCT)?
Answer: The value was 2.1±0.2 fold.

Question: And the “ABCG5 mRNA” value ([3]; SKMEL-28, siCT)?
Answer: The value was 4.5±0.1 fold.

Question: What about the “ABCG8 mRNA” value ([3]; SKMEL-28, siCT) of the same molecule?
Answer: Its value is 0.4±0.1 fold.

Question: And the “LC3A mRNA” value ([3]; SKMEL-28, siCT)?
Answer: The value was 1.0±0.2 fold.

Question: And the “LC3B mRNA” value ([3]; SKMEL-28, siCT)?
Answer: Its value is 0.9±0.2 fold.

Question: And the “LDLR mRNA” value ([3]; SKMEL-28, siCT)?
Answer: Its value is 0.4±0.1 fold.

Question: What about the “NOR1 mRNA” value ([3]; SKMEL-28, siCT) of the same molecule?
Answer: The value was 1.8±0.1 fold.

Question: And the “Nur77 mRNA” value ([3]; SKMEL-28, siCT)?
Answer: Its value is 1.6±0.2 fold.

Question: What about the “SCD1 mRNA” value ([3]; SKMEL-28, siCT) of the same molecule?
Answer: The value was 1.0±0.2 fold.

Question: And the “SREBP1 mRNA” value ([3]; SKMEL-28, siCT)?
Answer: Its value is 2.3±0.2 fold.

Question: What about the “SULT2B1b mRNA” value ([3]; SKMEL-28, siCT) of the same molecule?
Answer: The value was 1.9±0.1 fold.

Question: What about the “ABCA1 mRNA” value ([3]; SKMEL-28, siLXRβ) of the same molecule?
Answer: Its value is 1.5±0.1 fold.

Question: What about the “ABCG1 mRNA” value ([3]; SKMEL-28, siLXRβ) of the same molecule?
Answer: Its value is 0.2±0.1 fold.

Question: And the “ABCG5 mRNA” value ([3]; SKMEL-28, siLXRβ)?
Answer: Its value is 1.7±0.3 fold.

Question: What about the “ABCG8 mRNA” value ([3]; SKMEL-28, siLXRβ) of the same molecule?
Answer: Its value is 0.7±0.2 fold.

Question: What about the “LC3A mRNA” value ([3]; SKMEL-28, siLXRβ) of the same molecule?
Answer: Its value is 1.0±0.2 fold.

Question: What about the “LC3B mRNA” value ([3]; SKMEL-28, siLXRβ) of the same molecule?
Answer: The value was 1.0±0.1 fold.

Question: What about the “LDLR mRNA” value ([3]; SKMEL-28, siLXRβ) of the same molecule?
Answer: The value was 1.1±0.1 fold.

Question: And the “NOR1 mRNA” value ([3]; SKMEL-28, siLXRβ)?
Answer: Its value is 1.2±0.2 fold.

Question: What about the “Nur77 mRNA” value ([3]; SKMEL-28, siLXRβ) of the same molecule?
Answer: Its value is 0.8±0.2 fold.

Question: And the “SCD1 mRNA” value ([3]; SKMEL-28, siLXRβ)?
Answer: The value was 0.8±0.1 fold.

Question: What about the “SREBP1 mRNA” value ([3]; SKMEL-28, siLXRβ) of the same molecule?
Answer: Its value is 0.9±0.3 fold.

Question: And the “SULT2B1b mRNA” value ([3]; SKMEL-28, siLXRβ)?
Answer: The value was 1.0±0.2 fold.

Question: What about the “LC3-II protein, densitometry relative to control” value [4] of the same molecule?
Answer: Its value is 1.

Question: What about the “Sterol amount/total sterol: 8-DHC” value [5] of the same molecule?
Answer: Its value is 0.05± 0.03.

Question: And the “Sterol amount/total sterol: zymostenol” value [5]?
Answer: Its value is 0.37± 0.07.
